{
  "source": "paper PMC11904993",
  "about": "“Humanized Candida and NanoBiT Assays Expedite Discovery of Bdf1 Bromodomain Inhibitors With Antifungal Potential” (Advanced Science, 2025)",
  "key": {"CgBdf1 BD2": {"molecular_target": "CgBdf1 BD2 (Candida glabrata, UniProt Q6FWV7)", "sequence (Q6FWV7 entry or part of it)": "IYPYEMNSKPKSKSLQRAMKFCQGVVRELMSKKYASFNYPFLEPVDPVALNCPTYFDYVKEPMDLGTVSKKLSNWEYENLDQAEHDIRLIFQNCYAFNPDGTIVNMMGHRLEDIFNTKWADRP", "assay": "biochemical", "assay_type": "binding, C. glabrata"}, "human Brd4 BD1": {"molecular_target": "human Brd4 BD1 (Homo sapiens, UniProt O60885)", "assay": "HTRF assay, inhibition of H4ac4 peptide binding", "settings": "Brd4 BD1"}, "human Brd4 BD2": {"molecular_target": "T1, human Brd4 BD2 (Homo sapiens, UniProt O60885)", "T1 construct": "GST‐tagged BD2 (residues 349–460) from human Brd4 (UniProt ID O60885); purchased Reaction Biology Corp", "assay": "HTRF assay, inhibition of H4ac4 peptide binding", "settings": "Brd4 BD2"}, "CaBdf1 BD2": {"molecular_target": "T2, CaBdf1 BD2 (Candida albicans, UniProt Q5A4W8)", "T2 construct": "BD1 (residues 193–327) and BD2 (residues 361–501) from CaBdf1 (Uniprot ID Q5A4W8); made in house; host or cells: E. coli BL21(DE3)", "T2 sequence (Q5A4W8 361-501)": "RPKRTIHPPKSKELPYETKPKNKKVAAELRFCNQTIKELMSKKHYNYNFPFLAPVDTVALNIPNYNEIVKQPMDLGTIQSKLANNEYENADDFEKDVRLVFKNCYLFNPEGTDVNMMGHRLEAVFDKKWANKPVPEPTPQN", "assay": "HTRF assay, inhibition of H4ac4 peptide binding", "design": "species or system C. albicans"}, "C. auris Bdf1 BD2": {"molecular_target": "C. auris Bdf1 BD2 (Candidozyma auris (Candida auris), UniProt A0AAW0VEM6)", "sequence (A0AAW0VEM6 entry or part of it)": "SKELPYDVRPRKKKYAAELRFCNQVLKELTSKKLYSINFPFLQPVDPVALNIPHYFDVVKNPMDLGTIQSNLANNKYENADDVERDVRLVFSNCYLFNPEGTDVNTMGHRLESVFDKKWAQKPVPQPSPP", "assay": "HTRF assay, inhibition of H4ac4 peptide binding", "settings": "CauBD2, read-out: HTRF signal, normalized (Figure 5A data)"}},
  "note": "Several values for one entry are separate records, joined by “and”; a condition that tells them apart may be missing. Equal entries are not always repeated.",
  "data": [
    {"smiles": "CC(=O)N1c2ccc(-c3ccc(C(=O)O)cc3)cc2C(Nc2ccc(Cl)cc2)CC1C", "note": "(centres unmarked) [I-BET726]", "values": [
      {"measurement": "activity at 0.0021 µM", "setting": "CgBdf1 BD2; 24 h, CgBD2, 2.10 nM, read-out: HTRF signal, normalized (Figure 5A data)", "result": 98.3, "unit": "%"},
      {"measurement": "activity at 0.01311 µM", "setting": "CgBdf1 BD2; 24 h, CgBD2, 13.11 nM, read-out: HTRF signal, normalized (Figure 5A data)", "result": 91.8, "unit": "%"},
      {"measurement": "activity at 0.03277 µM", "setting": "CgBdf1 BD2; 24 h, CgBD2, 32.77 nM, read-out: HTRF signal, normalized (Figure 5A data)", "result": 80.2, "unit": "%"},
      {"measurement": "activity at 0.08192 µM", "setting": "CgBdf1 BD2; 24 h, CgBD2, 81.92 nM, read-out: HTRF signal, normalized (Figure 5A data)", "result": 54.9, "unit": "%"},
      {"measurement": "activity at 0.2048 µM", "setting": "CgBdf1 BD2; 24 h, CgBD2, 204.8 nM, read-out: HTRF signal, normalized (Figure 5A data)", "result": 20.4, "unit": "%"},
      {"measurement": "activity at 0.512 µM", "setting": "CgBdf1 BD2; 24 h, CgBD2, 512 nM, read-out: HTRF signal, normalized (Figure 5A data)", "result": 9.19, "unit": "%"},
      {"measurement": "activity at 1.28 µM", "setting": "CgBdf1 BD2; 24 h, CgBD2, 1280 nM, read-out: HTRF signal, normalized (Figure 5A data)", "result": 5.95, "unit": "%"},
      {"measurement": "activity at 0.00524 µM", "setting": "CgBdf1 BD2; 24 h, read-out: HTRF signal, normalized (Figure 5A data)", "result": 93.2, "unit": "%"},
      {"measurement": "IC50", "setting": "CgBdf1 BD2; Fig 5A, four replicates, read-out: IC50 (μM) BD2, C. gla. Bdf1", "result": "0.085 ± 0.012", "unit": "µM"},
      {"measurement": "HTRF signal, normalized (Figure 5A data)", "setting": "human Brd4 BD1; 0.0537 nM", "result": "104.39 and 100.71 and 99.92 and 101.07"},
      {"measurement": "HTRF signal, normalized (Figure 5A data)", "setting": "human Brd4 BD1; 0.13 nM", "result": "104.60 and 101.29 and 100.85 and 99.75"},
      {"measurement": "HTRF signal, normalized (Figure 5A data)", "setting": "human Brd4 BD1; 0.34 nM", "result": "101.49 and 102.55 and 101.26 and 101.01"},
      {"measurement": "HTRF signal, normalized (Figure 5A data)", "setting": "human Brd4 BD1; 0.84 nM", "result": "100.78 and 99.59 and 99.33 and 97.74"},
      {"measurement": "HTRF signal, normalized (Figure 5A data)", "setting": "human Brd4 BD1; 2.10 nM", "result": "99.49 and 98.84 and 98.60"},
      {"measurement": "HTRF signal, normalized (Figure 5A data)", "setting": "human Brd4 BD1; 5.24 nM", "result": "95.52 and 94.38 and 93.54 and 94.69"},
      {"measurement": "HTRF signal, normalized (Figure 5A data)", "setting": "human Brd4 BD1; 13.11 nM", "result": "83.95 and 83.77 and 84.76 and 83.85"},
      {"measurement": "HTRF signal, normalized (Figure 5A data)", "setting": "human Brd4 BD1; 32.77 nM", "result": "48.83 and 48.92 and 64.32 and 62.36"},
      {"measurement": "HTRF signal, normalized (Figure 5A data)", "setting": "human Brd4 BD1; 81.92 nM", "result": "17.12 and 16.89 and 27.28 and 27.02"},
      {"measurement": "HTRF signal, normalized (Figure 5A data)", "setting": "human Brd4 BD1; 204.8 nM", "result": "4.51 and 4.84 and 6.56 and 8.13"},
      {"measurement": "HTRF signal, normalized (Figure 5A data)", "setting": "human Brd4 BD1; 512 nM", "result": "0.14 and 0.27 and 0.17 and 0.18"},
      {"measurement": "HTRF signal, normalized (Figure 5A data)", "setting": "human Brd4 BD2; 0.0537 nM", "result": "102.97 and 106.08 and 108.84 and 105.09"},
      {"measurement": "HTRF signal, normalized (Figure 5A data)", "setting": "human Brd4 BD2; 0.13 nM", "result": "103.72 and 102.37 and 103.68 and 103.57"},
      {"measurement": "HTRF signal, normalized (Figure 5A data)", "setting": "human Brd4 BD2; 0.34 nM", "result": "94.46 and 91.58 and 95.80 and 94.95"},
      {"measurement": "HTRF signal, normalized (Figure 5A data)", "setting": "human Brd4 BD2; 0.84 nM", "result": "79.67 and 69.64 and 75.99 and 78.48"},
      {"measurement": "HTRF signal, normalized (Figure 5A data)", "setting": "human Brd4 BD2; 2.10 nM", "result": "45.84 and 41.04 and 44.03 and 46.83"},
      {"measurement": "HTRF signal, normalized (Figure 5A data)", "setting": "human Brd4 BD2; 5.24 nM", "result": "8.26 and 9.91 and 8.75 and 10.80"},
      {"measurement": "HTRF signal, normalized (Figure 5A data)", "setting": "human Brd4 BD2; 32.77 nM", "result": "3.03 and 2.91 and 2.46 and 2.11"},
      {"measurement": "HTRF signal, normalized (Figure 5A data)", "setting": "human Brd4 BD2; 81.92 nM", "result": "2.74 and 1.64 and 1.67 and 2.48"},
      {"measurement": "HTRF signal, normalized (Figure 5A data)", "setting": "human Brd4 BD2; 512 nM", "result": "2.01 and 2.50 and 2.14 and 2.65"},
      {"measurement": "remaining activity at 0.0021 µM", "setting": "CaBdf1 BD2; CaBD2, 2.10 nM, read-out: HTRF signal, normalized (Figure 5A data)", "result": 108, "unit": "%"},
      {"measurement": "remaining activity at 0.01311 µM", "setting": "CaBdf1 BD2; CaBD2, 13.11 nM, read-out: HTRF signal, normalized (Figure 5A data)", "result": 98.4, "unit": "%"},
      {"measurement": "remaining activity at 0.03277 µM", "setting": "CaBdf1 BD2; CaBD2, 32.77 nM, read-out: HTRF signal, normalized (Figure 5A data)", "result": 95.1, "unit": "%"},
      {"measurement": "remaining activity at 0.2048 µM", "setting": "CaBdf1 BD2; CaBD2, 204.8 nM, read-out: HTRF signal, normalized (Figure 5A data)", "result": 61.4, "unit": "%"},
      {"measurement": "remaining activity at 0.512 µM", "setting": "CaBdf1 BD2; CaBD2, 512 nM, read-out: HTRF signal, normalized (Figure 5A data)", "result": 25.6, "unit": "%"},
      {"measurement": "remaining activity at 1.28 µM", "setting": "CaBdf1 BD2; CaBD2, 1280 nM, read-out: HTRF signal, normalized (Figure 5A data)", "result": 11.4, "unit": "%"},
      {"measurement": "IC50", "setting": "CaBdf1 BD2; Fig 5A, four replicates, read-out: IC50 (μM) BD2, C. alb. Bdf1", "result": "0.63 ± 0.05", "unit": "µM"},
      {"measurement": "remaining activity at 0.00524 µM", "setting": "CaBdf1 BD2; read-out: HTRF signal, normalized (Figure 5A data)", "result": 102, "unit": "%"},
      {"measurement": "remaining activity at 0.0021 µM", "setting": "C. auris Bdf1 BD2; 2.10 nM", "result": 97.4, "unit": "%"},
      {"measurement": "remaining activity at 0.01311 µM", "setting": "C. auris Bdf1 BD2; 13.11 nM", "result": 85.4, "unit": "%"},
      {"measurement": "remaining activity at 0.03277 µM", "setting": "C. auris Bdf1 BD2; 32.77 nM", "result": 75, "unit": "%"},
      {"measurement": "remaining activity at 0.08192 µM", "setting": "C. auris Bdf1 BD2; 81.92 nM", "result": 52.6, "unit": "%"},
      {"measurement": "remaining activity at 0.2048 µM", "setting": "C. auris Bdf1 BD2; 204.8 nM", "result": 31, "unit": "%"},
      {"measurement": "remaining activity at 0.512 µM", "setting": "C. auris Bdf1 BD2; 512 nM", "result": 12.9, "unit": "%"},
      {"measurement": "remaining activity at 3.2 µM", "setting": "C. auris Bdf1 BD2; 3200 nM", "result": 5.12, "unit": "%"}
    ]}
  ]
}
